The results in this text go back to patent US11028051B2, “Tetrahydroquinoline-based bromodomain inhibitors” (St. Jude Children's Research Hospital, priority 2016, dated 2021).

Structures are written as SMILES. Bounds are passed on as bounds.

What all share (test): competitive TR-FRET assay, BET-BD with acetylated peptide ligand
What all share (type): binding
Background: TR-FRET usually uses a lanthanide donor and a delayed reading to cut background.

The target of one test is BRD4-BD1 (Homo sapiens (Human), UniProt O60885). To be noted: BRD4-BD1; Table 11 additional modifications; read-out: 4.1 EC50. Here is the method:
(§1) Inhibitor potency was determined using a competitive TR-FRET assay as detailed herein, measuring interaction of the respective BET-BD with an acetylated peptide ligand (Table 2).

The next test has as its target BRD2-BD2 (Homo sapiens (Human), UniProt P25440). Particulars: for EC50: BRD2-BD2, Table 11 additional modifications, read-out: 2.2 EC50; for 2.1/2.2: ratio of BRD2-BD1 EC50 to BRD2-BD2 EC50 (selectivity). Here is the method:
as §1

In the next test the target is BRD2-BD1 (Homo sapiens (Human), UniProt P25440). To be noted: BRD2-BD1; Table 11 additional modifications; read-out: 2.1 EC50. Here is the method:
as §1

A further test has as its target BRD3-BD1 (Homo sapiens (Human), UniProt Q15059). To be noted: BRD3-BD1; Table 11 additional modifications; read-out: 3.1 EC50. Here is the method: as §1
Another test has as its target BRD4-BD2 (Homo sapiens (Human), UniProt O60885). To be noted: BRD4-BD2; Table 11 additional modifications; read-out: 4.2 EC50. Here is the method: as §1
Another test has as its target BRDT (Homo sapiens, UniProt Q58F21). To be noted: BRDT; Table 11 additional modifications; read-out: BRDT EC50. Here is the method:
as §1

Usually EC50 stands for the concentration that produces a half-maximal response.

Chain of BRD2-BD2 (P25440 344-453): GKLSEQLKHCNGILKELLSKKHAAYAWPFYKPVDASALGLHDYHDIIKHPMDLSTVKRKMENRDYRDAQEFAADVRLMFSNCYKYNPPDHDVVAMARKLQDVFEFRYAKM
Chain of BRD2-BD1 (P25440 74-180): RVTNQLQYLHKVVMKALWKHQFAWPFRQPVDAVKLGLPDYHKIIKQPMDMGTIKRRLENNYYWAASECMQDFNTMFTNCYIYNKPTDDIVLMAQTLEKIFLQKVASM
Chain of BRD3-BD1 (Q15059 34-140): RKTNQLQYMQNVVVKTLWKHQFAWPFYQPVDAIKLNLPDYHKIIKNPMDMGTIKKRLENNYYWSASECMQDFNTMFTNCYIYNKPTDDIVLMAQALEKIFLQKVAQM

Regarding `CC(=O)N1c2ccc(-c3cccc(N)c3)cc2[C@H](NC(=O)OC(C)C)C[C@@H]1C` [compound 2], the EC50 on BRD4-BD1 was 1.88 µM; on BRD2-BD2, 0.11 µM; on BRD2-BD1, 0.73 µM; on BRD3-BD1, 0.25 µM; on BRD4-BD2, 0.64 µM. Moreover, the 2.1/2.2 at BRD2-BD2 stood at 6.6.

On to `COc1cccc(-c2ccc3c(c2)[C@H](NC(=O)OC(C)C)C[C@H](C)N3C(C)=O)c1` [compound 3], for which the EC50 on BRD4-BD1 was > 67.8 µM; at BRD2-BD2 it was 0.85 µM; on BRD2-BD1, 5.8 µM; on BRD3-BD1, 2.3 µM; on BRD4-BD2, > 67.8 µM. Also, the 2.1/2.2 on BRD2-BD2 came out at 6.8.

For `CC(=O)N1c2ccc(-c3ccc(N(C)C)cc3)cc2[C@H](NC(=O)OC(C)C)C[C@@H]1C` [compound 57], the EC50 on BRD4-BD1 came out at 2.9 µM; on BRD2-BD2, 0.79 µM; at BRD2-BD1, 1.5 µM; at BRD3-BD1 it was 1.4 µM; at BRD4-BD2, 0.73 µM. For the same molecule, on BRD2-BD2, the 2.1/2.2 is on record as 1.9.

As for `CC(=O)N1c2ccc(-c3cccc([N+](=O)[O-])c3)cc2[C@H](NC(=O)OC(C)C)C[C@@H]1C` [compound 58], the EC50 was > 96 µM at BRD4-BD1; 1.1 µM on BRD2-BD2; 7.7 µM on BRD2-BD1; 5.2 µM on BRD3-BD1; 6.2 µM on BRD4-BD2. The 2.1/2.2 on BRD2-BD2 amounted to 7.0.

Take `COc1ccc(-c2ccc3c(c2)[C@H](NC(=O)OC(C)C)C[C@H](C)N3C(C)=O)cc1` [compound 59]: the concentration giving a half-maximal response (EC50) at BRD4-BD1 was found to be 3.5 µM; at BRD2-BD2, 1.2 µM; on BRD2-BD1 it was 3.6 µM; at BRD3-BD1, 1.9 µM; on BRD4-BD2, 2.1 µM. Moreover, the 2.1/2.2 at BRD2-BD2 was 2.9.

On to `COc1ccccc1-c1ccc2c(c1)[C@H](NC(=O)OC(C)C)C[C@H](C)N2C(C)=O` [compound 60], for which the EC50 on BRD4-BD1 is > 50 µM; on BRD2-BD2, 2.9 µM; at BRD2-BD1 it was 15 µM; on BRD3-BD1, 11 µM; at BRD4-BD2, 14 µM. The 2.1/2.2 at BRD2-BD2 was determined as 5.3.

With `CC(=O)N1c2ccc(-c3ccc(Oc4ccccc4)cc3)cc2[C@H](NC(=O)OC(C)C)C[C@@H]1C` [compound 61], the EC50 amounted to 11 µM on BRD4-BD1; 2.1 µM on BRD2-BD2; 13 µM on BRD2-BD1; 8.8 µM at BRD3-BD1; 14 µM at BRD4-BD2. The 2.1/2.2 at BRD2-BD2 is 6.2.

As for `CC(=O)Nc1cccc(-c2ccc3c(c2)[C@H](NC(=O)c2ccccc2)C[C@H](C)N3C(C)=O)c1` [compound 62], the EC50 turned out to be 77 µM at BRD4-BD1; 77 µM on BRD2-BD2; 77 µM on BRD2-BD1; 62 µM on BRD3-BD1; 41 µM at BRD4-BD2. Moreover, the 2.1/2.2 on BRD2-BD2 turned out to be 6.0.

Turning to `CC(=O)Nc1cccc(-c2ccc3c(c2)[C@H](NCc2ccccc2)C[C@H](C)N3C(C)=O)c1` [compound 63], the half-maximal effective concentration (EC50) on BRD4-BD1 stood at 13 µM; at BRD2-BD2 it was 2.4 µM; at BRD2-BD1 it was 13 µM; on BRD3-BD1, 6.9 µM; at BRD4-BD2 it was 7.6 µM. Further, the 2.1/2.2 at BRD2-BD2 was 1.0.

In the case of `CC(=O)Nc1cccc(-c2ccc3c(c2)[C@H](NC(=O)Cc2ccccc2)C[C@H](C)N3C(C)=O)c1` [compound 64], the EC50 is 7.3 µM on BRD4-BD1; 2 µM on BRD2-BD2; 8.1 µM at BRD2-BD1; 11 µM on BRD3-BD1; 10 µM at BRD4-BD2. For the same molecule, the 2.1/2.2 at BRD2-BD2 is listed as 4.1.

On to `CC(=O)Nc1cccc(-c2ccc3c(c2)[C@H](NC(=O)C(C)C)C[C@H](C)N3C(C)=O)c1` [compound 65], for which the 2.1/2.2 at BRD2-BD2 was found to be 1.4. For the same molecule, at BRD4-BD2, the EC50 turned out to be 7.8 µM.

On to `COc1ccc(C(=O)N[C@@H]2C[C@H](C)N(C(C)=O)c3ccc(-c4cccc(NC(C)=O)c4)cc32)cc1` [compound 66], for which the 50% effective concentration (EC50) worked out at 78 µM on BRD4-BD1; 36 µM at BRD2-BD2; 71 µM at BRD2-BD1; 77 µM at BRD3-BD1; 78 µM at BRD4-BD2. Further, at BRD2-BD2, the 2.1/2.2 was 2.0.

Turning to `CC(=O)Nc1cccc(-c2ccc3c(c2)[C@H](NC(=O)C(C)C)C[C@H](C)N3C(C)=O)c1` [compound 71], the 2.1/2.2 at BRD2-BD2 is on record as 4.9. Moreover, the EC50 on BRD4-BD2 came out at 11 µM.

Take `CCCOc1cccc(-c2ccc3c(c2)[C@H](Nc2ccccc2OC(F)(F)F)C[C@H](C)N3C(C)=O)c1` [compound 167]: the EC50 on BRD4-BD1 is > 70 µM; at BRD2-BD2 it was 2.1 µM; at BRD2-BD1, > 70 µM; at BRD3-BD1 it was > 70 µM; at BRDT it was > 70 µM. The 2.1/2.2 on BRD2-BD2 was determined as 16.

As for `CCCOc1cccc(-c2ccc3c(c2)[C@H](Nc2ccc(F)cc2OC)C[C@H](C)N3C(C)=O)c1` [compound 168], the concentration for a half-maximal effect (EC50) was > 57 µM at BRD4-BD1; 1.2 µM at BRD2-BD2; 35 µM at BRD2-BD1; 45 µM at BRD3-BD1; 39 µM on BRDT. Besides, the 2.1/2.2 on BRD2-BD2 came to 99.

On to `COc1cc(F)ccc1N[C@@H]1C[C@H](C)N(C(C)=O)c2ccc(-c3cc[nH]n3)cc21` [compound 170], for which the EC50 is > 26 µM at BRD4-BD1; 0.14 µM on BRD2-BD2; 3.1 µM at BRD2-BD1; 14 µM at BRD3-BD1; 4.9 µM on BRDT. Moreover, the 2.1/2.2 on BRD2-BD2 worked out at 6.5.

For the molecule `CC(=O)N1c2ccc(-c3cc[nH]n3)cc2[C@H](Nc2ccccc2OC(F)(F)F)C[C@@H]1C` [compound 171], the 50% effective concentration (EC50) at BRD4-BD1 was 31 µM; on BRD2-BD2, 0.44 µM; at BRD2-BD1 it was > 53 µM; at BRD3-BD1, 23 µM; on BRDT, > 53 µM. Also, the 2.1/2.2 at BRD2-BD2 is recorded as 140.

Take `CC(=O)N1c2ccc(-c3ccn(C)n3)cc2[C@H](Nc2ccccc2OC(F)(F)F)C[C@@H]1C` [compound 172]: the EC50 is 17 µM on BRD4-BD1; 0.64 µM on BRD2-BD2; 8.2 µM on BRD2-BD1; 12 µM at BRD3-BD1; 12 µM on BRDT. Further, the 2.1/2.2 on BRD2-BD2 is recorded as 6.3.

Take `COc1cc(F)ccc1N[C@@H]1C[C@H](C)N(C(C)=O)c2ccc(-c3ccn(C)n3)cc21` [compound 173]: the EC50 on BRD4-BD1 was 3.8 µM; at BRD2-BD2 it was 0.17 µM; on BRD2-BD1, 1.4 µM; on BRD3-BD1 it was 1.5 µM; at BRDT, 2 µM. Also, on BRD2-BD2, the 2.1/2.2 is 8.2.

In the case of `CC(=O)Nc1cccc(-c2ccc3c(c2)[C@H](Nc2ccc(C(=O)N(C)C)cc2)C[C@H](C)N3C(C)=O)c1` [compound 174], the EC50 is > 15 µM at BRD4-BD1; 0.04 µM on BRD2-BD2; 0.9 µM on BRD2-BD1; 1.1 µM at BRD3-BD1; 1.2 µM on BRDT. Also, the 2.1/2.2 on BRD2-BD2 is 58.

Regarding `CC(=O)Nc1cccc(-c2ccc3c(c2)[C@H](Nc2ccc(S(=O)(=O)N(C)C)cc2)C[C@H](C)N3C(C)=O)c1` [compound 175], the EC50 at BRD4-BD1 worked out at 5.5 µM; on BRD2-BD2 it was 0.1 µM; on BRD2-BD1, 2.7 µM; at BRD3-BD1 it was 1.7 µM; at BRDT, 2.9 µM. The 2.1/2.2 on BRD2-BD2 came to 27.

`CC(=O)Nc1cccc(-c2ccc3c(c2)[C@H](Nc2ccc(C(=O)OC(C)(C)C)cc2)C[C@H](C)N3C(C)=O)c1` [compound 176]: the EC50 on BRD4-BD1 was found to be 16 µM; on BRD2-BD2, 0.75 µM; on BRD2-BD1, 10 µM; on BRD3-BD1 it was 8.5 µM; on BRDT it was 13 µM. Moreover, at BRD2-BD2, the 2.1/2.2 is 30.
